Assay results from patent publication US4711890A, “Pharmaceutical compositions containing azanaphthalene-carboxamide derivatives, azanaphthalene-carboxamide derivatives and process for their use” (Rhone-Poulenc Sante, priority 1982, dated 1987).

Legend:
[1] = biological target: cerebral receptor sites for benzodiazepines; test: Affinity for the cerebral-type receptor sites for benzodiazepines: displacement of 3H-diazepam on rat brain membranes; type: binding; conditions: 3H-diazepam displacement
Procedure: The affinity of the compounds of formula (I) for the cerebral receptor sites for benzodiazepines was determined, by the method of MOHLER et al, Life Sciences, 1977, 20, 2101, on rat brain membranes.

[2] = GHAZAL et al., Egypt. Pharm. Bull., 1960, 42, 465; cited from earlier work
[3] = biological target: T1, peripheral-type receptor sites for benzodiazepines (Rattus norvegicus, UniProt P16257); test: Affinity for the peripheral-type receptor sites for benzodiazepines: displacement of 3H-diazepam on rat kidney membranes; type: binding; conditions: for Ki: rat kidney membranes, 3H-diazepam displacement
T1 construct: on rat kidney membranes; from tissue; host or cells: rat kidney membranes
Procedure: The affinity of the compounds of formula (I) for the peripheral-type receptor sites was determined, using the procedure of BRAESTRUP et al., Proc. Natl. Acad. Sci. U.S.A., 1977, 74, 3805, on rat kidney membranes.

[4] = tested on: binding sites for [^3 H] diazepam in the brain; conditions: [3H] diazepam sites; cited from earlier work
[5] = tested on: binding sites for [^3 H] diazepam in the kidneys; conditions: kidneys / peripheral level, [3H] diazepam sites; cited from earlier work

| Compound | Ki [1] | Ki [3] | also measured |
| --- | --- | --- | --- |
| CNC1=Nc2ccc(Cl)cc2C(c2ccccc2)=[N+]([O-])C1 [Chlorodiazepoxide, reference compound] | 80 nM |  |  |
| CCN(CC)C(=O)c1cc(-c2ccccc2)nc2ccccc12 [Example 1, N,N-diethyl-2-phenylquinoline-4-carboxamide] | 50 nM |  | pharmacological properties described in the literature [2]: uricosuric and anti-pyretic properties |
| O=C(c1cc(-c2ccccn2)nc2ccccc12)N1CCCCC1 [Example 3, 1-[2-(pyridin-2-yl)-quinolin-4-yl]-carbonylpiperidine] | 160 nM |  |  |
| O=C(c1cc(-c2ccccc2)nc2ccccc12)N1CCCCC1 [Example 4, 1-(2-phenylquinolin-4-yl)-carbonylpiperidine] | 40 nM |  |  |
| O=C(c1cc(-c2ccccc2)nc2ccccc12)N1CCOCC1 [Example 5, 4-(2-phenylquinolin-4-yl)-carbonylmorpholine] | 90 nM |  |  |
| CCN(CC)C(=O)c1cc(-c2ccccc2Cl)nc2ccccc12 [Example 8, N,N-diethyl-2-(2-chlorophenyl)-quinoline-4-carboxamide] |  | 117 nM |  |
| CCN(CC)C(=O)c1cc(-c2ccc(F)cc2)nc2ccccc12 [Example 10, N,N-diethyl-2-(4-fluorophenyl)-quinoline-4-carboxamide] | 210 nM | 160 nM |  |
| O=C(c1cc(-c2ccccc2)nc2ccccc12)N1CCCC1 [Example 11, 1-(2-phenylquinolin-4-yl)-carbonylpyrrolidine] | 130 nM |  |  |
| CCC(C)N(C)C(=O)c1cc(-c2ccccc2Cl)nc2ccccc12 (stereo not drawn) [Example 15, N-methyl-N-(1-methylpropyl)-2-(2-chlorophenyl)-quinoline-4-carboxamide] |  | 31 nM |  |
| CCC(C)N(C(=O)c1cc(-c2ccccc2Cl)nc2ccccc12)C(C)CC (stereo not drawn) [Example 16, N,N-di-(1-methylpropyl)-2-(2-chlorophenyl)-quinoline-4-carboxamide] |  | 72 nM |  |
| CCC(C)N(CC)C(=O)c1cc(-c2ccccc2Cl)nc2ccccc12 (stereo not drawn) [Example 17, N-ethyl-N-(1-methylpropyl)-2-(2-chlorophenyl)-quinoline-4-carboxamide] |  | 9 nM |  |
| O=C(c1cc(-c2ccccc2Cl)nc2ccccc12)N1CCCCC1 [Example 18, 1-[2-(2-chlorophenyl)-quinolin-4-yl]-carbonylpiperidine] |  | 360 nM |  |
| CCN(CC)C(=O)c1cc(-c2ccccc2)cc2ccccc12 [Example 20, N,N-diethyl-3-phenylnaphthalene-1-carboxamide] |  | 2 nM | preferential action on peripheral receptors (versus cerebral) ([3]; peripheral versus cerebral benzodiazepine receptors): act preferentially on peripheral receptors |
| CCC(C)N(C)C(=O)c1cc(-c2ccccc2)cc2ccccc12 (stereo not drawn) [Example 21, N-methyl-N-(1-methylpropyl)-3-phenylnaphthalene-1-carboxamide] |  | 58 nM |  |
| CCN(CC)C(=O)c1nc(-c2ccccc2Cl)nc2ccccc12 [Example 22, N,N-diethyl-2-(2-chlorophenyl)-quinazoline-4-carboxamide] |  | 270 nM |  |
| CCN(CC)C(=O)c1cc(-c2ccc(C)cc2)nc2ccccc12 [Example 24, N,N-diethyl-2-(4-methylphenyl)-quinoline-4-carboxamide] | 330 nM |  |  |
| CCN(CC)C(=O)c1nc(-c2ccccc2)nc2ccccc12 [Example 25, N,N-diethyl-2-phenylquinazoline-4-carboxamide] | 390 nM |  |  |
| O=C(c1nc(-c2ccccc2)nc2ccccc12)N1CCCC1 [Example 26, 1-[(2-phenylquinazolin-4-yl)-carbonyl]-pyrrolidine] | 90 nM |  |  |
| O=C(c1nc(-c2ccccc2)nc2ccccc12)N1CCCCC1 [Example 27, 1-[(2-phenylquinazolin-4-yl)-carbonyl]-piperidine] | 70 nM |  |  |
| CCN(CC)C(=O)c1cc(-c2ccc(Cl)c(Cl)c2)nc2ccccc12 [Example 37, N,N-diethyl-2-(3,4-dichlorophenyl)-quinoline-4-carboxamide] |  | 117 nM |  |
| CCN(CC)C(=O)c1cc(-c2ccccc2F)nc2ccccc12 [Example 38, N,N-diethyl-2-(2-fluorophenyl)-quinoline-4-carboxamide] | 310 nM |  |  |
| CC1CCCC(C)N1C(=O)c1cc(-c2ccccc2Cl)nc2ccccc12 (stereo not drawn) [Example 39, 1-{[2-(2-chlorophenyl)-quinolin-4-yl]-carbonyl}-2,6-dimethylpiperidine] |  | 54 nM |  |
| CCC(C)N(C)C(=O)c1cc(-c2ccccc2)nc2ccccc12 (stereo not drawn) [Example 43, N-methyl-N-(1-methylpropyl)-2-phenylquinoline-4-carboxamide] |  | 100 nM |  |
| CCN(CCC1CCNCC1)C(=O)c1cc(-c2ccccc2)nc2ccccc12 [Example 49, N-ethyl-N-[2-(piperidin-4-yl)-ethyl]-2-phenylquinoline-4-carboxamide] | 400 nM |  |  |
| CCC(C)N(C)C(=O)c1nc(-c2ccccc2)cc2ccccc12 (stereo not drawn) [Example 51, N-methyl-N-(1-methylpropyl)-3-phenylisoquinoline-1-carboxamide] |  | 45 nM |  |
| O=C1CCN(C(=O)c2nc(-c3ccccc3)nc3ccccc23)CC1 [Example 53, 1-[(2-phenylquinazolin-4-yl)-carbonyl]-piperidin-4-one] | 270 nM |  |  |
| CN1C(=O)CN=C(c2ccc(Cl)cc2)c2cc(Cl)ccc21 [Ro-5-4864, 7-chloro-5-(p-chlorophenyl)-1,3-dihydro-1-methyl-2H-1,4-benzodiazepin-2-one] |  |  | affinity / activity at brain (central) binding sites, in words [4]: inactive; affinity / activity at kidney (peripheral) binding sites, in words [5]: very active |
| O=C1CN=C(c2ccccc2Cl)c2cc([N+](=O)[O-])ccc2N1 [clonazepam] |  |  | affinity / activity at brain (central) binding sites, in words [4]: very strong affinity; affinity / activity at kidney (peripheral) binding sites, in words [5]: virtually inactive |
